Results on one compound are retold here after patent publication US12257251B2, “Use of FAK inhibitor in preparation of drug for treating tumors having NRAS mutation” (INXMED (NANJING) CO., LTD., priority 2019, dated 2025).

One may read the pIC50 as −log10 of the IC50, conventionally taken in molar units.

In this test the test system is Ba/F3-NRAS^G12D cell line. The test is described as follows: Antiproliferative test (CellTiter Glo, 48 hours) in NRAS^G12D-transfected Ba/F3 cells. In kind it is cell-based, murine. As to conditions: for pIC50: Mus musculus. How it is done: The Ba/F3 cell line was obtained from ATCC in 2009, and cultured according to a method described in Zhang X Ren R. Bcr-abl efficiently induces a myeloproliferative disease and production of excess interleukin-3 and granulocyte-macrophage colony-stimulating factor in mice: A novel model for chronic myelogenous leukemia. Blood., 1998, 92: 3829-40. Growth factor-dependent BA/F3 cells were cultured in RPMI 1640 including 10% FBS and supplemented with 15% WEHI-3 conditioned medium or recombinant IL-3 (Roche) as a source of IL-3 at a final concentration of 1 ng/ml. […] Cancer Res., 2007, 67: 7139-46 and Fredericks J, Ren R. The role of RAS effectors in BCRIABL induced chronic myelogenous leukemia. Front Med China., 2013, 7: 452-61. Upon receipt of the original stock, cells were expanded and frozen at a low passage rate (<3). Frozen cells were thawed and used in this study, with cell passages limited to 15 for all experimental procedures. All cells were tested regularly to ensure freedom and maintenance in a normal state of mycoplasma.
NRAS^G12D-transfected Ba/F3 (Ba/F3-N) or KRAS^G12D-transfected Ba/F3 ([…]) cells were seeded into 96-well cell culture cluster plate in 100 μL of medium at a density of 5,000 cells per well. BI853520 was diluted 3-fold with RPMI 1640 at 9 points, and added according to the volume of each well, starting at 10 μmol/L to reach a 3-fold concentration gradient (final solvent concentration <1/1000). PD0325901 was used as a positive control. After 48 hours of incubation, cell viability was measured using CellTiter Glo (Promega). Luminescence was detected using an Envision plate reader (PerkinElmer). The calculation method of Z factor was as described in Zhang J H, Chung T D Y, Oldenburg K R. A simple statistical parameter for use in evaluation and validation of high throughput screening assays. J Biomol Screen., 1999, 4: 67-73, and the following analysis only used data with Z factor >0.6. […]
Background: ATP-based viability assays read luminescence as a measure of living cells.

pIC50: −log10 of the molar value. Where two headings read alike, the source gives them in different places.

Take `COc1cc(C(=O)NC2CCN(C)CC2)c(F)cc1Nc1ncc(C(F)(F)F)c(Oc2cccc3c2C(=O)N(C)C3)n1` [BI853520]: for the setting “+ IL-3 versus − IL-3”, the “Increase of IC50 after addition of IL-3” value is given as “more than 4 fold”. The pIC50 is 4.82 (BaF3, after addition of IL-3, 48 hours, read-out: IC50 (antiproliferative effect), + IL-3) and 5.47 (BaF3, without IL-3, 48 hours, read-out: IC50 (antiproliferative effect), − IL-3).
